Data as given in patent US20240158446A1, “CYCLIC COMPOUND HAVING SELECTIVE INHIBITORY ACTION ON KRAS OVER HRAS AND NRAS” (CHUGAI SEIYAKU KABUSHIKI KAISHA, priority 2021, published 2024).
*1 amine or outer side, *2 acyl side, *3 side chain or, on linkers, in order; H or OH if unused. Where a SMILES comes first, the peptide text is derived from it. Bridges are numbered along the chain shown (N, C = ends). [ ]: non-standard residue; d: D form. The star is where a group is joined. hPhe(3-Cl-4-CF3) = N[C@@H](CCc1ccc(C(F)(F)F)c(Cl)c1)C(=O)O; NPrPhe(4-CF3) = CCCN[C@@H](Cc1ccc(C(F)(F)F)cc1)C(=O)O; X6 = CCCN([C@@H](COCCC(C)C)C(=O)[*:2])[*:1]; X2 = CCCN([C@@H](COC1CCC1)C(=O)[*:2])[*:1]; X4 = CCCN([C@@H](CC(C)C)C(=O)[*:2])[*:1]; NMeGly(cPent) = CN[C@H](C(=O)O)C1CCCC1; NMeD = CN[C@@H](CC(=O)O)C(=O)O; NMeL = CN[C@@H](CC(C)C)C(=O)O; Morpholide = C1CN(*)CCO1; NMeA = CN[C@@H](C)C(=O)O; Aze = O=C(O)[C@@H]1CCN1; Ac4c = NC1(C(=O)O)CCC1; Sar = CNCC(=O)O

Assays:
[1] = biological target: GDP-bound HRAS wild-type protein (Homo sapiens, UniProt P01112); test: Binding to HRAS by surface plasmon resonance (SPR), Single Cycle Kinetics; conditions: ratio of KD for GDP-bound HRAS wild-type protein to KD for KRAS, SPR
[2] = tested on: human lung cancer strain NCI-H441; test: cells; conditions: NCI-H441, 96 h, read-out: NCI-H441 IC50 (nM), NCI-H441 cell proliferation, 4 days, CellTiter-Glo;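 note: cell proliferation inhibition after four days measured by CellTiter-Glo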
[3] = biological target: GDP-bound KRAS wild-type protein (Homo sapiens, UniProt P01116); test: Binding to KRAS by surface plasmon resonance (SPR), Single Cycle Kinetics; conditions: SPR, Single Cycle Kinetics, GDP-bound KRAS wild-type protein; read-out: KRAS KD
[4] = biological target: GDP-bound NRAS wild-type protein (Homo sapiens, UniProt P01111); test: Binding to NRAS by surface plasmon resonance (SPR), Single Cycle Kinetics; conditions: ratio of KD for GDP-bound NRAS wild-type protein to KD for KRAS, SPR
Sequence of GDP-bound NRAS wild-type protein (P01111 whole entry): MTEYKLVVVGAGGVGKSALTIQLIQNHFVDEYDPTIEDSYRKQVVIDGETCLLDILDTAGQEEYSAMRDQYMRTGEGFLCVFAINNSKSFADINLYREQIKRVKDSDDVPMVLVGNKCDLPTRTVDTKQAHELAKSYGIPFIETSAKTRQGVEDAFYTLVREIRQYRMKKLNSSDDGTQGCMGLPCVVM

Sequence of GDP-bound HRAS wild-type protein (P01112 whole entry): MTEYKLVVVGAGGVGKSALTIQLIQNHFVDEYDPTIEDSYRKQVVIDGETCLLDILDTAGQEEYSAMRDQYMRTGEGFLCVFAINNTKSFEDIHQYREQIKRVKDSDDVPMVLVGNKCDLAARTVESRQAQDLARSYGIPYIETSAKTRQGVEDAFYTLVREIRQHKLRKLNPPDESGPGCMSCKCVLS
Sequence of GDP-bound KRAS wild-type protein (P01116 whole entry): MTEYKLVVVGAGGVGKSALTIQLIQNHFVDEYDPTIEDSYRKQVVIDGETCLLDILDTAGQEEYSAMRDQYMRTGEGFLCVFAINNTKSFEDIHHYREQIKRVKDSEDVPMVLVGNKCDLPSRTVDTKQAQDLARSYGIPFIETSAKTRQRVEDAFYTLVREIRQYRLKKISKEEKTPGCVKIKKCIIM

| SMILES | IC50 [2] [nM] | Kd [3] [nM] | HRAS/KRAS (KD ratio) [1] | NRAS/KRAS (KD ratio) [4] |
| --- | --- | --- | --- | --- |
| CC[C@H](C)[C@@H]1NC(=O)[C@H](CC)N(C)C(=O)C[C@@H](C(=O)N(C)C)N(C)C(=O)[C@H](C2CCCC2)N(C)C(=O)C2(CCCC2)N(C)C(=O)[C@@H]2CCCN2C(=O)[C@H](CCc2cc(F)c(C(F)(F)F)c(F)c2)NC(=O)CN(C)C(=O)[C@H](Cc2ccc(C)cc2)N2CC/C=C\C[C@@H](C2=O)N(C)C(=O)[C@@H]2CCCN2C1=O [PP1811] | 14.3 | 0.23 | B (a compound having 3 or more and less than 10 is denoted as B) | A (a compound having 10 or more and less than 20 is denoted as A) |
| CC[C@H](C)[C@@H]1NC(=O)[C@H](CC)N(C)C(=O)C[C@@H](C(=O)N(C)C)N(C)C(=O)[C@H](C2CCCC2)N(C)C(=O)C2(CCCC2)N(C)C(=O)[C@@H]2C[C@@H](C)CN2C(=O)[C@H](CCc2cc(F)c(C(F)(F)F)c(F)c2)NC(=O)CN(C)C(=O)[C@H](Cc2ccc(C)cc2)N2CC/C=C\C[C@@H](C2=O)N(C)C(=O)CN(C)C1=O [PP1812] | 7.8 | 0.059 | A (a compound having 10 or more and less than 20 is denoted as A) | A (a compound having 10 or more and less than 20 is denoted as A) |
| CC[C@H](C)[C@@H]1NC(=O)[C@H](C2CC2)N(C)C(=O)C[C@@H](C(=O)N(C)C)N(C)C(=O)[C@H](C2CCCC2)N(C)C(=O)C2(CCCC2)N(C)C(=O)[C@@H]2C[C@@H](C)CN2C(=O)[C@H](CCc2cc(F)c(C(F)(F)F)c(F)c2)NC(=O)CN(C)C(=O)[C@H](Cc2ccc(C)cc2)N2CC/C=C\C[C@@H](C2=O)N(C)C(=O)CN(C)C1=O [PP1813] | 22.6 | 0.12 | B (a compound having 3 or more and less than 10 is denoted as B) | A (a compound having 10 or more and less than 20 is denoted as A) |
| CC[C@H](C)[C@@H]1NC(=O)[C@H](CC)N(C)C(=O)C[C@@H](C(=O)N(C)C)N(C)C(=O)[C@H](C2CCCC2)N(C)C(=O)C2(CCCC2)N(C)C(=O)[C@@H]2C[C@@H](C)CN2C(=O)[C@H](CCc2cc(F)c(C(F)(F)F)c(F)c2)NC(=O)CN(C)C(=O)[C@H](Cc2ccc(C)cc2)N2CC/C=C\C[C@@H](C2=O)N(C)C(=O)[C@@H]2CCCN2C1=O [PP1814] | 26.2 | 0.27 | A (a compound having 10 or more and less than 20 is denoted as A) | A (a compound having 10 or more and less than 20 is denoted as A) |
| CCCN1C(=O)C[C@@H](C(=O)N2CCOCC2)N(C)C(=O)[C@H](C2CCCC2)N(C)C(=O)C2(CCC2)NC(=O)[C@@H]2CCCN2C(=O)[C@H](CCc2ccc(C(F)(F)F)c(Cl)c2)NC(=O)CN(C)C(=O)[C@H](Cc2ccc(C(F)(F)F)cc2)N(CCC)C(=O)CN(C)C(=O)CN(C)C(=O)[C@H](C(C)C)NC(=O)[C@@H]1CC(C)C [PP1815] ([X4]V[Sar][Sar][NPrPhe(4-CF3)][Sar][hPhe(3-Cl-4-CF3)]P[Ac4c][NMeGly(cPent)][NMeD]-Morpholide; lactam N-11) | 83 | 0.34 | B (a compound having 3 or more and less than 10 is denoted as B) | B (a compound having 3 or more and less than 10 is denoted as B) |
| CCO[C@@H]1C[C@H]2C(=O)NC3(CCC3)C(=O)N(C)[C@@H](C3CCCC3)C(=O)N(C)[C@H](C(=O)N(C)C)CC(=O)N(C)[C@@H](CC)C(=O)N[C@@H]([C@@H](C)CC)C(=O)N(C)CC(=O)N(C)[C@H]3C/C=C\CCN(C3=O)[C@@H](Cc3ccc(C(F)(F)F)cc3)C(=O)N(C)CC(=O)N[C@@H](CCc3cc(C)c(Cl)c(C)c3)C(=O)N2C1 [PP1821] | 105 | 0.63 | A (a compound having 10 or more and less than 20 is denoted as A) | A (a compound having 10 or more and less than 20 is denoted as A) |
| CC[C@H](C)[C@@H]1NC(=O)[C@H](CC)N(C)C(=O)C[C@@H](C(=O)N(C)C)N(C)C(=O)[C@H](C2CCCC2)N(C)C(=O)C2(CCC2)NC(=O)[C@@H]2CCCN2C(=O)[C@H](CCc2cc(C)c(Cl)c(C)c2)NC(=O)CN(C)C(=O)[C@H](Cc2ccc(C(F)(F)F)cc2)N2CC/C=C\C[C@@H](C2=O)N(C)C(=O)CN(C)C1=O [PP1822] | 107 | 1.1 | B (a compound having 3 or more and less than 10 is denoted as B) | A (a compound having 10 or more and less than 20 is denoted as A) |
| CCO[C@@H]1C[C@H]2C(=O)NC3(CCCC3)C(=O)N(C)[C@@H](C3CCCC3)C(=O)N(C)[C@H](C(=O)N(C)C)CC(=O)N(C)[C@@H](CC)C(=O)N[C@@H]([C@@H](C)CC)C(=O)N(C)CC(=O)N(C)[C@H]3C/C=C\CCN(C3=O)[C@@H](Cc3ccc(C(F)(F)F)cc3)C(=O)N(C)CC(=O)N[C@@H](CCc3cc(C)c(Cl)c(C)c3)C(=O)N2C1 [PP1823] | 55.9 | 1 | A (a compound having 10 or more and less than 20 is denoted as A) | A (a compound having 10 or more and less than 20 is denoted as A) |

Further lines, with some results ahead:

| IC50 [2] [nM] | Kd [3] [nM] | SMILES | HRAS/KRAS (KD ratio) [1] | NRAS/KRAS (KD ratio) [4] |
| --- | --- | --- | --- | --- |
| 63.8 | 1.2 | CCCN1C(=O)CN(C)C(=O)CN(C)C(=O)[C@H]([C@@H](C)CC)NC(=O)[C@H](CC(C)C)N(C)C(=O)C[C@@H](C(=O)N2CCOCC2)N(C)C(=O)[C@H](C2CCCC2)N(C)C(=O)C2(CCC2)NC(=O)[C@@H]2CCCN2C(=O)[C@H](CCc2ccc(C(F)(F)F)c(Cl)c2)NC(=O)CN(C)C(=O)[C@@H]1COC1CCC1 [PP1816] ([NMeL]I[Sar][Sar][X2][Sar][hPhe(3-Cl-4-CF3)]P[Ac4c][NMeGly(cPent)][NMeD]-Morpholide; lactam N-11) | C (A compound having a KD ratio of 0.1 or more and less than 3 is denoted as C) | B (a compound having 3 or more and less than 10 is denoted as B) |
| 20.4 | 0.47 | CCCN1C(=O)CN(C)C(=O)CN(C)C(=O)[C@H]([C@@H](C)CC)NC(=O)[C@H](CC(C)C)N(C)C(=O)C[C@@H](C(=O)N2CCOCC2)N(C)C(=O)[C@H](C2CCCC2)N(C)C(=O)C2(CCC2)NC(=O)[C@@H]2CCCN2C(=O)[C@H](CCc2ccc(C(F)(F)F)c(Cl)c2)NC(=O)CN(C)C(=O)[C@@H]1COCCC(C)C [PP1817] ([NMeL]I[Sar][Sar][X6][Sar][hPhe(3-Cl-4-CF3)]P[Ac4c][NMeGly(cPent)][NMeD]-Morpholide; lactam N-11) | C (A compound having a KD ratio of 0.1 or more and less than 3 is denoted as C) | C (A compound having a KD ratio of 0.1 or more and less than 3 is denoted as C) |
| 74.8 | 0.9 | CCCN1C(=O)[C@@H]2CCN2C(=O)[C@H](C)N(C)C(=O)[C@H]([C@@H](C)CC)NC(=O)[C@H](CC(C)C)N(C)C(=O)C[C@@H](C(=O)N2CCOCC2)N(C)C(=O)[C@H](C2CCCC2)N(C)C(=O)C2(CCC2)NC(=O)[C@@H]2CCCN2C(=O)[C@H](CCc2ccc(C(F)(F)F)c(Cl)c2)NC(=O)CN(C)C(=O)[C@@H]1COC1CCC1 [PP1818] ([NMeL]I[NMeA][Aze][X2][Sar][hPhe(3-Cl-4-CF3)]P[Ac4c][NMeGly(cPent)][NMeD]-Morpholide; lactam N-11) | B (a compound having 3 or more and less than 10 is denoted as B) | C (A compound having a KD ratio of 0.1 or more and less than 3 is denoted as C) |
